Drawing on patent US7704995B2 (Exelixis, Inc., priority 2003, dated 2010), this text covers IC50 for one compound.

What all share (assay): Kinase specificity assay (33P phosphoryl transfer, LCCA or AlphaScreen)
Format in all cases: biochemical
In general terms: Alpha assays give light when donor and acceptor beads are brought close together.

One assay deals with Flt4 (Homo sapiens, UniProt P35916). As to conditions: ATP close to KM; read-out: Flt4 inhibition, IC50. As for the experimental part:
(§1) Kinase activity and compound inhibition are investigated using one or more of the three assay formats described below. The ATP concentrations for each assay are selected to be close to the Michaelis-Menten constant (KM) for each individual kinase. Dose-response experiments are performed at 10 different inhibitor concentrations in a 384-well plate format. The data are fitted to the following four-parameter equation: Y=Min+(Max−Min)/(1+(X/IC50)^H) where Y is the observed signal, X is the inhibitor concentration, Min is the background signal in the absence of enzyme (0% enzyme activity), Max is the signal in the absence of inhibitor (100% enzyme activity), IC50 is the inhibitor concentration at 50% enzyme inhibition and H represents the empirical Hill's slope to measure the cooperativity. Typically H is close to unity. ^33P Phosphoryl Transfer Assay:
(§2) Greiner 384-well white, clear bottom, high binding plates are coated with 2 μg/well of protein or peptide substrate in a 50 μL volume overnight at ambient temperature. The coating buffer typically contains 40 μg/mL substrate, 22.5 mM Na2CO3, 27.5 mM NaHCO3, 150 mM NaCl and 3 mM NaN3. The coating solution is aspirated and the plates are washed once with 50 μL of assay buffer and padded dry. Subsequently compounds and enzymes are mixed with γ^33P-ATP (3.3 μCi/nmol) in a total volume of 20 uL in suitable assay buffers. The mixture is incubated at ambient temperature for 1.5-2.5 hrs and terminated by aspiration using a Molecular Devices EMBLA 96-head plate washer. The plates are subsequently washed 6-12 times with PBST or TBS buffer. Scintillation fluid (50 μl/well) is then added, the plates are sealed and activity assessed by liquid scintillation spectrometry using a Perkin Elmer MicroBeta TriLux.
(§3) In the LCCA assays, kinase activity is measured as the percent ATP consumed following the kinase reaction using luciferase-luciferin-coupled chemiluminescence. Greiner 384-well white, clear bottom, medium binding plates are used for LCCA. Briefly, the kinase reaction is initiated by mixing compounds, ATP and kinase in a 20 uL volume. The mixture is incubated at ambient temperature for 2-4 hrs. At the end of the kinase reaction, a 20 uL luciferase-luciferin mix is added and the chemiluminescent signal is read using a Wallac Victor^2 reader. The luciferase-luciferin mix consists of 50 mM HEPES, pH 7.8, 8.5 ug/mL oxalic acid (pH 7.8), 5 (or 50) mM DTT, 0.4% Triton X-100, 0.25 mg/mL coenzyme A, 63 uM AMP, 28 ug/mL luciferin and 40,000 units of light/mL luciferase. For the LCCA assays, total ATP consumption has been standardized to 25-45% and the IC50 values correlates well with those determined by radiometric assays.
(§4) AlphaScreen technology is a proximity assay which utilizes the increase in fluorescent signal when donor and acceptor beads are close in proximity. Biotinylated poly(Glu,Tyr) 4:1 is used as the kinase substrate, in conjunction with streptavidin-coated donor beads and anti-phosphortyrosine antibody PY100-coated acceptor beads. Upon phosphorylation, the peptide substrate can bind to both donor and acceptor beads giving rise to an increase in fluorescence. Compounds, ATP, biotinylated poly(Glu, Tyr) and kinases are mixed in a volume of 20 uL for 1 hr at ambient temperature using Greiner 384-well white clear bottom medium binding plates. Following incubation a 10 uL solution containing […] AlphaScreen beads, 75 mM Hepes, pH 7.4, 300 mM NaCl, 120 mM EDTA, 0.3% BSA and 0.03% Tween-20 is added to each well. After 2-16 hr incubation of the beads, plates are read in a Perkin Elmer AlphaQuest reader. The IC50 values correlates well with those of radiometric assays.

A further assay concerns the target CLK1 (Homo sapiens, UniProt P49759). As to conditions: ATP close to KM; read-out: CLK1 inhibition, IC50. As for the experimental part: as §1, §2, §3, §4
In a further assay the target is PKA (Homo sapiens, UniProt P17612). Conditions: ATP close to KM; read-out: PKA inhibition, IC50. As for the experimental part: as §1, §2, §3, §4
The next assay has as its target EGFR (Homo sapiens, UniProt P00533). Conditions: ATP close to KM; read-out: EGFR inhibition, IC50. Here is the method:
as §1, §2, §3, §4

The next assay has as its target PLK (Homo sapiens, UniProt P53350). Conditions: ATP close to KM; read-out: PLK inhibition, IC50. As for the experimental part:
as §1, §2, §3, §4

A further assay addresses PDGFR-β (Homo sapiens, UniProt P09619). As to conditions: ATP close to KM; read-out: PDGFR-β inhibition, IC50. Here is the method:
as §1, §2, §3, §4

In another assay the target is Flt1 (Homo sapiens, UniProt P17948). Conditions: ATP close to KM; read-out: Flt1 inhibition, IC50. As for the experimental part: as §1, §2, §3, §4
The target of another assay is Cdc2 (Homo sapiens, UniProt P06493). Conditions: ATP close to KM; read-out: Cdc2 inhibition, IC50. Here is the method: as §1, §2, §3, §4

pIC50: −log10 of the molar value. Bounds are passed on as bounds.

Chain of Flt1 (P17948 27-1338): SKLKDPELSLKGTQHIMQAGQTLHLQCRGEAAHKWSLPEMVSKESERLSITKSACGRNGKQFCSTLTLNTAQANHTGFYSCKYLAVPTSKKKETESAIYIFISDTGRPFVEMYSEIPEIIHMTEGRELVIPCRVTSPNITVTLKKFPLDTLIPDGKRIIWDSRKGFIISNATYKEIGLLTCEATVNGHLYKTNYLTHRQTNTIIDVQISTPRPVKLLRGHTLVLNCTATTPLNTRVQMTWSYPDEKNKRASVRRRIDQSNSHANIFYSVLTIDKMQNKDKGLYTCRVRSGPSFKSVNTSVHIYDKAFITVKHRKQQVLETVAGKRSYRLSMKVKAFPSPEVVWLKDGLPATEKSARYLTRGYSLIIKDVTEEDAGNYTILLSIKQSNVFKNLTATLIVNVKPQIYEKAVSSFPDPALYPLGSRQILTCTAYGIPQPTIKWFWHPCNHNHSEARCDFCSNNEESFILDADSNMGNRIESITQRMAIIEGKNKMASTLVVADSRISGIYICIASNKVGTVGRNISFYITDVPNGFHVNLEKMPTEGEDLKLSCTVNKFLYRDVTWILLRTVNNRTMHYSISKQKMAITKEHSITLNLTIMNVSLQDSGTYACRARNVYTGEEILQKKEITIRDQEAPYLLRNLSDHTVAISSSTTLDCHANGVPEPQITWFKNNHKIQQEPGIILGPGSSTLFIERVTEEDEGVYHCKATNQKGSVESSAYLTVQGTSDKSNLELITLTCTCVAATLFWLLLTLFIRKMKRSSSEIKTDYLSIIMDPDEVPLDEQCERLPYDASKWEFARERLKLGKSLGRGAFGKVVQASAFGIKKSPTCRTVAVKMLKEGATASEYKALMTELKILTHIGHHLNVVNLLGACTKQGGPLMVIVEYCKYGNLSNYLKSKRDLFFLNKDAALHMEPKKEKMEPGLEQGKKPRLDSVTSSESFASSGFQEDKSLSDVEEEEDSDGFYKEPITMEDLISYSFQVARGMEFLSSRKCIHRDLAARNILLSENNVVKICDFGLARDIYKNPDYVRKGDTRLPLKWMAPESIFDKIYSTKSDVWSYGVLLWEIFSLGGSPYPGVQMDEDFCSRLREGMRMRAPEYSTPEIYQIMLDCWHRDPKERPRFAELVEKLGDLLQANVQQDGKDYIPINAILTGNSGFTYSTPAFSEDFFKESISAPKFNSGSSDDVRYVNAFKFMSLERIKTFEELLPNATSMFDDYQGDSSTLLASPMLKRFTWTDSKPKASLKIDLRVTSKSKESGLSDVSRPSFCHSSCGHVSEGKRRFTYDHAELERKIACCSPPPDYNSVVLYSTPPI
Chain of PDGFR-β (P09619 33-1106): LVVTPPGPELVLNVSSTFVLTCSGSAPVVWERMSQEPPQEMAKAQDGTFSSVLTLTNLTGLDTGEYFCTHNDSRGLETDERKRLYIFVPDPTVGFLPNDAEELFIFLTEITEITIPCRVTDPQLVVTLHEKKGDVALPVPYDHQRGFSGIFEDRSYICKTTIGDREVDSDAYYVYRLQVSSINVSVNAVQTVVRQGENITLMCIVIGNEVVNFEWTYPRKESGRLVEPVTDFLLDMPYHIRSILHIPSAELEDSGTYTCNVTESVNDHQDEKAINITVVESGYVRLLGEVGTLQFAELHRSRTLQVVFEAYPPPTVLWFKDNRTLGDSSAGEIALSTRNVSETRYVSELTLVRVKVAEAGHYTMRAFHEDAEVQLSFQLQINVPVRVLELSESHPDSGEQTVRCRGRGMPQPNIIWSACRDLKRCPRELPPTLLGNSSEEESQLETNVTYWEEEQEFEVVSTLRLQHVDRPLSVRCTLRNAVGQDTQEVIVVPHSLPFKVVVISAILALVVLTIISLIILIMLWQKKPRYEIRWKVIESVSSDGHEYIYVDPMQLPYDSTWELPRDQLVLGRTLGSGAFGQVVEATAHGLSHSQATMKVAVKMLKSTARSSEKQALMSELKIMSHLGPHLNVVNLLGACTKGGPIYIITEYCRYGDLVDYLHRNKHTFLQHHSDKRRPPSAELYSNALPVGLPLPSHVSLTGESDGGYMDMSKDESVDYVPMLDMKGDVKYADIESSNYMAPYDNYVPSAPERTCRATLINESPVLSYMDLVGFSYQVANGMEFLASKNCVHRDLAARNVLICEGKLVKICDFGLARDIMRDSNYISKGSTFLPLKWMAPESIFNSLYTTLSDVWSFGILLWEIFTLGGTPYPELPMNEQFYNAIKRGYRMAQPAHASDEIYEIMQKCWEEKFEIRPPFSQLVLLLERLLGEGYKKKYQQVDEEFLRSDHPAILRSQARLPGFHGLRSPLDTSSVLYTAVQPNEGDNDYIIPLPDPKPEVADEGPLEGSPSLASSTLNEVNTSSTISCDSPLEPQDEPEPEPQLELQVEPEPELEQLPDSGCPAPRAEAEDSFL
Chain of EGFR (P00533 25-1210): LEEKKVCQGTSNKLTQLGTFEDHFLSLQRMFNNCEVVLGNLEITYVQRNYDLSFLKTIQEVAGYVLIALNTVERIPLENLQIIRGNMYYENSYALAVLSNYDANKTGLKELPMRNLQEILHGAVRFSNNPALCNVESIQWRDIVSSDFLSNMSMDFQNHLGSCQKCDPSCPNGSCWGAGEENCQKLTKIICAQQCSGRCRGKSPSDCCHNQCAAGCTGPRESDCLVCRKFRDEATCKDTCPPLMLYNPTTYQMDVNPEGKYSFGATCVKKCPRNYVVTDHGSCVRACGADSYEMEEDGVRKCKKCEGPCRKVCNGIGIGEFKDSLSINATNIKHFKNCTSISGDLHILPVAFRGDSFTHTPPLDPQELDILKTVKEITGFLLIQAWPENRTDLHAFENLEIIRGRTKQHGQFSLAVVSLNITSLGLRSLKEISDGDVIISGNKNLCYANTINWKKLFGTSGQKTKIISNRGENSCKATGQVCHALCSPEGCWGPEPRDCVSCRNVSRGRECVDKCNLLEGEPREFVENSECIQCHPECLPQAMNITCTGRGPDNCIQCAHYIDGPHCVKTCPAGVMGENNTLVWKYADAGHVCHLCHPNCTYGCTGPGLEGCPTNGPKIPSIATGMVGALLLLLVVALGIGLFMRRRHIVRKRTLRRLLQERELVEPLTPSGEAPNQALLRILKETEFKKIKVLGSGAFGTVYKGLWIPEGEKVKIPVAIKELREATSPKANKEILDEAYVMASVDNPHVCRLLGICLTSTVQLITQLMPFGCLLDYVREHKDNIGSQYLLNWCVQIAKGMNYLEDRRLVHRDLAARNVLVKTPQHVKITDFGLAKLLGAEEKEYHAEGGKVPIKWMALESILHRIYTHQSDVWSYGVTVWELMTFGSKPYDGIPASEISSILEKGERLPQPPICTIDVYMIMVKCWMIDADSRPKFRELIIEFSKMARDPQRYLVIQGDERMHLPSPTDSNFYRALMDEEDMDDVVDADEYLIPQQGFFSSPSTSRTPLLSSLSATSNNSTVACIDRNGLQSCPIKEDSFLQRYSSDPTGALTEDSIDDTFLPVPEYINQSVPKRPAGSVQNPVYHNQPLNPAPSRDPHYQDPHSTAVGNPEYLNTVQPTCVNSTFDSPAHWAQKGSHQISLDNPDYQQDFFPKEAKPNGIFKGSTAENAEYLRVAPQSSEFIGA
Chain of Cdc2 (P06493 whole entry): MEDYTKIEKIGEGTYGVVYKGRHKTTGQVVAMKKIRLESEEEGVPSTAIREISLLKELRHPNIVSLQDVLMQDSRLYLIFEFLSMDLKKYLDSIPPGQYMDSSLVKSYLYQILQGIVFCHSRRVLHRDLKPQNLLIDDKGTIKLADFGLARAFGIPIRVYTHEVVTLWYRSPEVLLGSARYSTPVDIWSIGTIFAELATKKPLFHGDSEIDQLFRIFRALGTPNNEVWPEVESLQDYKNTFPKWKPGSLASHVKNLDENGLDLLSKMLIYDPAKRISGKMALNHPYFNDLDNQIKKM
Chain of Cdc2 (P14635 whole entry partner): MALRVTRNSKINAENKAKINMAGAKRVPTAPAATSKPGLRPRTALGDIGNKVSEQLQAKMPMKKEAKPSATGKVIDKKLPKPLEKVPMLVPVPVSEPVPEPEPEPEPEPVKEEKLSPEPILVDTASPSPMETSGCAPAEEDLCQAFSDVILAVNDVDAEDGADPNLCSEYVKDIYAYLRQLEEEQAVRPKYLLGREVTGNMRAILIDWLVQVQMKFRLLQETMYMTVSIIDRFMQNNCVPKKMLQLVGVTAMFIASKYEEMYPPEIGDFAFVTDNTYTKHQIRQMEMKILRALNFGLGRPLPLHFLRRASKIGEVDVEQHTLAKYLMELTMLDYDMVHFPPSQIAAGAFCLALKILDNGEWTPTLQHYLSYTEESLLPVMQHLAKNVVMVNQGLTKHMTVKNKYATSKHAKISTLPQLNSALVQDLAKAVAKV
Chain of PLK (P53350 whole entry): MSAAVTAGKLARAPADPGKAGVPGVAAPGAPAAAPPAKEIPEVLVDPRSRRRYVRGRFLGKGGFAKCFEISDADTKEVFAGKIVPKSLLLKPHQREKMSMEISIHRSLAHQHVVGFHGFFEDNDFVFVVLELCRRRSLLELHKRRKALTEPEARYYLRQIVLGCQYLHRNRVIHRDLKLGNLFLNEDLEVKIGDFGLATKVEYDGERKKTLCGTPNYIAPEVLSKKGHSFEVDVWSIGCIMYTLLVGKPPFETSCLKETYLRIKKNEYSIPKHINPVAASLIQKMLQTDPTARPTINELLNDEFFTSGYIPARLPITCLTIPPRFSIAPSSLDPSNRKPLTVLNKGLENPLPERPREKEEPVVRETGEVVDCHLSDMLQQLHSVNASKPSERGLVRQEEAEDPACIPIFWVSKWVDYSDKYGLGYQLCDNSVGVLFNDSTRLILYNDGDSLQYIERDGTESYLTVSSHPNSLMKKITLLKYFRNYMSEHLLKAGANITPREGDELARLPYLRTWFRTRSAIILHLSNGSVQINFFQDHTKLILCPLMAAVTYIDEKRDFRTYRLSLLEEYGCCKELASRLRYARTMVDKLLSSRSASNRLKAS

Take `NC(=O)c1nc(-c2cccc3ccccc23)cnc1N` [Example 2, 3-Amino-6-naphthalen-1-ylpyrazine-2-carboxamide]: the pIC50 at Flt4 was more than 7.30; on CLK1, 5.00 to 6.00; on PKA, 5.00 to 6.00; on EGFR it was not above 5.00; on PLK, 5.00 to 6.00; at PDGFR-β, 6.00 to 7.30. Further, the pIC50 on Flt1 is 6.00 to 7.30; at Cdc2, not above 5.00.

As a reminder, the pIC50 is −log10 of the IC50, conventionally taken in molar units.
